Experimental findings from ChEMBL document CHEMBL1138933 (J Med Chem, 2006) are described below.

Active and inactive are the calls of the source. No cut-off for these calls is given here. A value given as a limit tells only on which side of the number the result lay.

For test [1], the target named is T1, Adrenergic receptor alpha-1 (Rattus norvegicus, UniProt P15823+P23944+P43140).
T1 sequence (P15823 whole entry): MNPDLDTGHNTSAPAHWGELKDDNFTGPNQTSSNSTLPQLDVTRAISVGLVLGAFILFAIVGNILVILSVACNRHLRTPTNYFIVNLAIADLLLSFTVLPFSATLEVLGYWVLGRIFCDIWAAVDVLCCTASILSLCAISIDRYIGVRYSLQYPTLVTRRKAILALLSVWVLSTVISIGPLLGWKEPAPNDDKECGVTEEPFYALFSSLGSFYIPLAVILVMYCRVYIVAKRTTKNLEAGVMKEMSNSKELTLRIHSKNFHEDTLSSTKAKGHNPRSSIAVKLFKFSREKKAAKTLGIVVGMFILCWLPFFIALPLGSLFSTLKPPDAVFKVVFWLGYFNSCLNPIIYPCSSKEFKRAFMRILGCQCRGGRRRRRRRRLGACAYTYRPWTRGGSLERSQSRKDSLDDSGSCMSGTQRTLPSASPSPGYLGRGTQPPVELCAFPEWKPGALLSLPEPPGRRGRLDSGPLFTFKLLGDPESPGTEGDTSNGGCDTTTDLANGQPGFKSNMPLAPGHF
T1 sequence (P23944 whole entry): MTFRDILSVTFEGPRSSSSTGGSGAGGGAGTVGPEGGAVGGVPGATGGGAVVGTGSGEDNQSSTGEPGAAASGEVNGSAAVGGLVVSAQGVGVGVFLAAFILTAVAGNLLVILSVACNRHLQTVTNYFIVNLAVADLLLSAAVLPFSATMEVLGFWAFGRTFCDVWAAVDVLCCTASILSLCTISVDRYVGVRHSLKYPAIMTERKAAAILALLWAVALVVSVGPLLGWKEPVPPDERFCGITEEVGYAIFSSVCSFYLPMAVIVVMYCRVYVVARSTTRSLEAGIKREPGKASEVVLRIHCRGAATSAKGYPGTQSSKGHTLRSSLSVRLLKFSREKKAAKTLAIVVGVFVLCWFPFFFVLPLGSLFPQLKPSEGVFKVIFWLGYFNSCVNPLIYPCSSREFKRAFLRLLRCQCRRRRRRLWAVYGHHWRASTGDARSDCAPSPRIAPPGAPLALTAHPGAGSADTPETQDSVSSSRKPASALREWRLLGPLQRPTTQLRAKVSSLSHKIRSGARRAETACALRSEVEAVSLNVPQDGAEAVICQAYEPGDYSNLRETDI
T1 sequence (P43140 whole entry): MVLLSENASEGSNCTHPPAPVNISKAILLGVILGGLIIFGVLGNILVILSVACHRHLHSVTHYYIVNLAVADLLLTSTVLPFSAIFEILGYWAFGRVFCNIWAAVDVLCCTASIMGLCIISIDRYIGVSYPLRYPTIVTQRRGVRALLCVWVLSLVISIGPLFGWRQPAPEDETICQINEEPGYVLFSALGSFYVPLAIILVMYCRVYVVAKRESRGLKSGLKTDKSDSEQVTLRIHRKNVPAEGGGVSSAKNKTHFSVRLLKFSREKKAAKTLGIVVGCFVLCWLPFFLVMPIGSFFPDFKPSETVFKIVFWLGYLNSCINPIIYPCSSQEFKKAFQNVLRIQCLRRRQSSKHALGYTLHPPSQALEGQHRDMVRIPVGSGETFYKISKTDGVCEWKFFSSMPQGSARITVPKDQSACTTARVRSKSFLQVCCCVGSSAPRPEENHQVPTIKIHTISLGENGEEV
Nature of the test: Displacement of [3H]prazosin from alpha-1 adrenergic receptor in Sprague-Dawley rat cortical membranes. Type of test: cell membranes, Membrane.

Test [2] has as its target T2, 5-hydroxytryptamine receptor 1A (Homo sapiens, UniProt P08908).
T2 sequence (P08908 whole entry): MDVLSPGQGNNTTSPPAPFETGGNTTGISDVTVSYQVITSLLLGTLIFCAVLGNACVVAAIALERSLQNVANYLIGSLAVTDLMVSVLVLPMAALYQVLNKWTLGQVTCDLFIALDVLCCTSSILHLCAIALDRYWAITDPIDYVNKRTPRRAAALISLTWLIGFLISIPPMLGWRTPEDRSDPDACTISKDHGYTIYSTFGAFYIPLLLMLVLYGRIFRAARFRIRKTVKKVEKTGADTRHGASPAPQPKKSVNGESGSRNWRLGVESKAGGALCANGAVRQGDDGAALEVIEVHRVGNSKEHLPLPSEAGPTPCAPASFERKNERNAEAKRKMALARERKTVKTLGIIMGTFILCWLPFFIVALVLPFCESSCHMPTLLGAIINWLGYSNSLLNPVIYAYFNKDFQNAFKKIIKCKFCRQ
Put plainly: biochemical.
Description: Displacement of [3H]-8-OH-DPAT from human 5HT1A receptor expressed in CHO cells

Test [3] concerns the target Sodium-dependent serotonin transporter (Rattus norvegicus, UniProt P31652).
Description: Displacement of [3H]paroxetine from 5-HT transporter in Sprague-Dawley rat cortical membranes
Test [4] addresses Sodium-dependent serotonin transporter (Homo sapiens, UniProt P31645). Type of test: cell-based, JAR.
Description: Inhibition of [3H]5-HT uptake at human 5-HT transporter expressed in Jar cells
Test [5] concerns the target Adrenergic receptor alpha-1 (Rattus norvegicus) (UniProt P15823+P23944+P43140). Put plainly: Displacement of [3H]prazosin from alpha-1 adrenergic receptor in Sprague-Dawley rat cortical membranes at 1 uM. Type of test: cell membranes. Conditions: Membrane. On the technique in general: Loss of bound radioactivity is the signal in a displacement assay; it reports binding, not function.

Test [6] has as its target T3, 5-hydroxytryptamine receptor 1A (Homo sapiens) (UniProt P08908).
T3 sequence (whole entry): T2 sequence (P08908 whole entry)
Nature of the test: Agonist activity at human 5HT1A receptor expressed in CHO cells by inhibition of […] forskolin-stimulated cAMP production relative to 5-HT. Type of test: functional, cell-based.

In test [7] the target is T2, 5-hydroxytryptamine receptor 1A.
The subject of the next test is Rattus norvegicus. Put plainly: Increase of 5-HT levels in Sprague-Dawley rat frontal cortex at 30 mg/kg, po relative to control by microdialysis assay. Type of test: functional, organism-based. Also on record: dose 30 mg/kg.

Sodium-dependent serotonin transporter (Homo sapiens, UniProt P31645), sequence (P31645 whole entry): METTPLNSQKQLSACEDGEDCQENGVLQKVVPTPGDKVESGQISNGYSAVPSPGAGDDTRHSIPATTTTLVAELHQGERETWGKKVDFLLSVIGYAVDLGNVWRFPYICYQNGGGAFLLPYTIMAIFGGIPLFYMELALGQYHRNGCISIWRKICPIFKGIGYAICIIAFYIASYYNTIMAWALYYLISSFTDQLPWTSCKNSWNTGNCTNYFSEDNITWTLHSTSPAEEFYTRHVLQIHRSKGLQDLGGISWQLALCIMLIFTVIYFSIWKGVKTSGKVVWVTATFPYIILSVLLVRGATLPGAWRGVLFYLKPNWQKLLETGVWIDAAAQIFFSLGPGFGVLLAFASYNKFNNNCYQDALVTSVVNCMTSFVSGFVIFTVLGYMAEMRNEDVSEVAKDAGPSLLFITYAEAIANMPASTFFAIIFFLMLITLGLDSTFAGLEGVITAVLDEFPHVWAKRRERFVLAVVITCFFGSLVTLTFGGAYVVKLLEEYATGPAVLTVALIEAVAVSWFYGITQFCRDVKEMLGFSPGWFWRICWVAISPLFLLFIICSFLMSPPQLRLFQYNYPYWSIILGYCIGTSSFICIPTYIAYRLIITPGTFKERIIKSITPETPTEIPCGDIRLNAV
Sodium-dependent serotonin transporter (Rattus norvegicus, UniProt P31652), sequence (P31652 whole entry): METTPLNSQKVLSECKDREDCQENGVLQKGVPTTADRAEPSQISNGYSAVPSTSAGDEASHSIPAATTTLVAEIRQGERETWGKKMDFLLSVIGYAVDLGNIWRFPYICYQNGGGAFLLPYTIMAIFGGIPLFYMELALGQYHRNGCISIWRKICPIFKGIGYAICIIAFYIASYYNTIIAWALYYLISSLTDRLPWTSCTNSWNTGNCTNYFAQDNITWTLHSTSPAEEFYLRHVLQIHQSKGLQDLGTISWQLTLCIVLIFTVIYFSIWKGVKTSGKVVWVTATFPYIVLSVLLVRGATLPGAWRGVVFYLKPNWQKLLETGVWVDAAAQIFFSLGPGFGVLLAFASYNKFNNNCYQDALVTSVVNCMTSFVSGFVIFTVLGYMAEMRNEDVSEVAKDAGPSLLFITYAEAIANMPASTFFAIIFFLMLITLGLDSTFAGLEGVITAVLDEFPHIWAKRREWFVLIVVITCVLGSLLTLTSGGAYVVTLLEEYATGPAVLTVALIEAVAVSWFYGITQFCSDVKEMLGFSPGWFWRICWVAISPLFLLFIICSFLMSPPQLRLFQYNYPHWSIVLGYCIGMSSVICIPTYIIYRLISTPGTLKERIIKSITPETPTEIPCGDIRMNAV

On to `CCCN(CCCCc1c[nH]c2ccc(F)cc12)C1COc2c(F)ccc(C(N)=O)c2C1` (racemic), for which the Ki in test [1] was 494 nM; in test [2], 4.4 nM; in test [3], 12.2 nM. Also, half-maximal inhibition in test [4] (IC50) was put at 217 nM.
`NC(=O)c1ccc(F)c2c1CC(N(CCCc1c[nH]c3ccc(F)cc13)CC1CC1)CO2` (racemic) came in with a Ki in test [3] of 3.5 nM. This compound showed an IC50 in test [4] of 53.5 nM. Also, the inhibition in test [5] is 32%.
With `NC(=O)c1ccc(F)c2c1C[C@H](N(CCCc1c[nH]c3ccc(F)cc13)C1CCC1)CO2`, the Ki in test [3] came to 5.3 nM. Also, it took 17.4 nM to reach half-maximal inhibition in test [4] (IC50).
`NC(=O)c1ccc(F)c2c1C[C@H](N(CCCc1c[nH]c3ccc(F)cc13)CC1CC1)CO2` returned an Emax in test [6] of 69%. Besides, affinity in test [3] was put at a Ki of 4.2 nM. In test [4], this compound registered an IC50 of 36.3 nM. This compound came in with an inhibition in test [5] of 26%.
Take `COc1cccc2c1CC(N(CCCc1c[nH]c3ccc(F)cc13)CC1CC1)CO2` (racemic): in test [6], the Emax came to 91%. Also, the IC50 in test [4] came out at 42.6 nM. The inhibition in test [5] was 44%.
With `NC(=O)c1ccc(F)c2c1C[C@@H](N(CCCc1c[nH]c3ccc(F)cc13)CC1CC1)CO2`, the Ki in test [1] turned out to be 2023 nM; in test [3], 3.9 nM. The compound also returned an IC50 in test [4] of 59.7 nM.
Regarding `CCN(CCCc1c[nH]c2ccc(F)cc12)[C@@H]1COc2c(F)ccc(C(N)=O)c2C1`, the Ki was 545 nM in test [1], 18.6 nM in test [2] and 3.6 nM in test [3]. Also, in test [6], the Emax was found to be 91%. This compound showed an IC50 in test [4] of 37.3 nM.
With `COc1cccc2c1C[C@@H](N(CCCc1c[nH]c3ccc(F)cc13)C1CCC1)CO2`, the results for the IC50 in test [7] and in test [4] were 23 nM and 732 nM, respectively. The compound also had an inhibition in test [5] of 15%.
Consider `CCN(CCCCc1c[nH]c2ccc(F)cc12)C1COc2c(F)ccc(C(N)=O)c2C1` (racemic), for which the values for the Ki in test [1], in test [2] and in test [3] were 328 nM, 330 nM and 0.4 nM, respectively. For the same compound, the IC50 in test [7] was greater than 1000 nM; in test [4] it was 24.1 nM.
On to `NC(=O)c1ccc(F)c2c1C[C@@H](N(CCCc1c[nH]c3ccc(F)cc13)C1CCC1)CO2`, for which, in the test with Rattus norvegicus, the outcome was Active. For the same compound, the Ki in test [3] amounted to 1.5 nM. In addition, half-maximal inhibition in test [4] (IC50) was put at 18.7 nM. Further, in test [5], the inhibition came to 21%.
Regarding `CCCN(CCCc1c[nH]c2ccc(F)cc12)C1COc2c(F)ccc(C(N)=O)c2C1` (racemic), the Ki in test [2] worked out at 3.5 nM; in test [3] it was 7.1 nM. In addition, the Emax in test [6] worked out at 84%. In addition, the 50% inhibitory concentration (IC50) in test [4] came out at 128 nM.
In the case of `NC(=O)c1ccc(F)c2c1CC(N(CCc1c[nH]c3ccc(F)cc13)CC1CC1)CO2` (racemic), the Ki came to 636 nM in test [1], 7.3 nM in test [2] and 97.8 nM in test [3]. The IC50 in test [4] was greater than 1000 nM.
For `CCCN(CCc1c[nH]c2ccc(F)cc12)C1COc2c(F)ccc(C(N)=O)c2C1` (racemic), the inhibition constant (Ki) in test [1] was found to be 484 nM; in test [2] it was 17.6 nM; in test [3], 88 nM. In test [4], the IC50 is greater than 1000 nM.
Regarding `NC(=O)c1ccc(F)c2c1CC(N(CCCCc1c[nH]c3ccc(F)cc13)C1CCC1)CO2` (racemic), the Ki in test [1] came to 645 nM; in test [3], 10.4 nM. In addition, the IC50 came out at 24 nM in test [7] and 300 nM in test [4].
Turning to `CCN(CCc1c[nH]c2ccc(F)cc12)C1COc2c(F)ccc(C(N)=O)c2C1` (racemic), the values for the Ki in test [1], in test [2] and in test [3] were 416 nM, 33.2 nM and 60.2 nM, respectively. Further, in test [4], the IC50 was found to be 883 nM.
As for `CCCN(CCCc1c[nH]c2ccc(F)cc12)C1COc2cccc(OC)c2C1` (racemic), in test [1], the Ki came to 820 nM. In test [6], this compound displayed an Emax of 80%. In addition, the midpoint of inhibition in test [4], the IC50, lay at 386 nM.
The compound `COc1cccc2c1CC(N(CCCc1c[nH]c3ccc(F)cc13)C1CCC1)CO2` (racemic) yielded an Emax in test [6] of 37%. Besides, half-maximal inhibition in test [4] (IC50) was put at 400 nM. The inhibition in test [5] was 15%.
Turning to `CCN(CCCc1c[nH]c2ccc(F)cc12)[C@H]1COc2c(F)ccc(C(N)=O)c2C1`, the Ki in test [1] is 640 nM; in test [2], 34.9 nM; in test [3], 3.4 nM. For the same compound, the IC50 was determined as 135 nM in test [7] and 42.7 nM in test [4].
Turning to `NC(=O)c1ccc(F)c2c1C[C@@H](NCCCc1c[nH]c3ccc(F)cc13)CO2`, the Ki in test [2] is 45.2 nM; in test [3] it was 20.4 nM. The compound further displayed an Emax in test [6] of 85%. Moreover, half-maximal inhibition in test [4] (IC50) required 197 nM. In test [5], this compound had an inhibition of 21%.
`NC(=O)c1ccc(F)c2c1CC(N(CCCCc1c[nH]c3ccc(F)cc13)CC1CC1)CO2` (racemic): the values for the Ki in test [1], in test [2] and in test [3] were 506 nM, 2.1 nM and 3.3 nM, respectively. In test [4], this compound had an IC50 of 82.4 nM.
Take `CCCN(CCCc1c[nH]c2ccc(F)cc12)[C@@H]1COc2c(F)ccc(C(N)=O)c2C1`: the Ki turned out to be 3.2 nM in test [2] and 4.7 nM in test [3]. Moreover, the Emax in test [6] came to 97%. This compound yielded an IC50 in test [4] of 59.9 nM. In test [5], this compound yielded an inhibition of 46%.
For the compound `CCCN(CCCc1c[nH]c2ccc(F)cc12)[C@H]1COc2c(F)ccc(C(N)=O)c2C1`, the Ki turned out to be 1150 nM in test [1], 1.5 nM in test [2] and 8 nM in test [3]. Moreover, in test [6], the Emax stood at 78%. The compound also returned an IC50 in test [4] of 181 nM.
For the compound `NC(=O)c1ccc(F)c2c1CC(N(CCCc1c[nH]c3ccc(F)cc13)C1CCC1)CO2` (racemic), in test [3], the Ki came out at 3 nM. For the same compound, inhibition in test [4] was half-maximal at 25.2 nM (IC50). Further, in test [5], the inhibition turned out to be 16%.
Take `CCN(CCCc1c[nH]c2ccc(F)cc12)C1COc2cccc(OC)c2C1` (racemic): the Ki in test [1] came to 207 nM; in test [2] it was 2.3 nM. Further, the Emax in test [6] stood at 96%. This compound gave an IC50 in test [4] of 64 nM.
Consider `COc1cccc2c1CC(N(C)CCCc1c[nH]c3ccc(F)cc13)CO2` (racemic), for which the Ki in test [1] was determined as 610 nM. Moreover, the Emax in test [6] worked out at 91%. This compound also displayed an IC50 in test [4] of 15 nM.
On to `CN(CCCc1c[nH]c2ccc(F)cc12)[C@H]1COc2c(F)ccc(C(N)=O)c2C1`, for which the Ki is 266 nM in test [2] and 14.8 nM in test [3]. Besides, half-maximal inhibition in test [4] (IC50) required 116 nM. This compound returned an inhibition in test [5] of 37%.

As usually defined, the Ki is a measure of affinity in units of concentration, obtained from inhibition or displacement. The low end stands for a stronger hold on the target, the high end for a looser hold on the target. As usually defined, the IC50 is the concentration that gives 50% inhibition. Read a high IC50 as weaker potency in that assay. What is called inhibition is the drop in the measured response relative to a control, in per cent. A low value points to little suppression. The term Emax denotes the size of the effect at its maximum, as opposed to the concentration needed.
